Assay results from ChEMBL document CHEMBL5625204, “Synthesis and pharmacodynamic evaluation of naphthalene derivatives against influenza A virus in vitro and in vivo” (Eur J Med Chem, 2023).
Active and inactive are the calls of the source. The rule behind the calls is not given here.

How the values were obtained:
Influenza A virus [1] = test: Antiviral activity against Influenza A virus H1N1 (A/Weiss/43)-infected in dog MDCK cells assessed as reduction in oxidative stress by measuring proportion of normal cells at 50 uM treated at 2 hrs post-infection and measured after 36 hrs by DCFH-DA staining based flow cytometry (reference value: 69.4%); assay type: functional; parameters: scale not given: the % may be the effect or the level left
Influenza A virus [2] = test: Antiviral activity against Influenza A virus H1N1 infected in human A549 cells assessed as decrease in cytokine gene expression by measuring decrease in IFN-beta gene expression at 25 to 50 uM measured after 24 hrs by qRT-PCR analysis; assay type: functional, organism-based; conditions: dose 25-50 µM
Influenza A virus [3] = test: Antiviral activity against Influenza A virus H1N1 (A/Weiss/43)-infected in BALB/c mouse assessed as reduction in Mx1 gene expression in lungs at 25 to 100 mg/kg/day administered intranasally for 6 days starting from 3 hrs post-viral infection by qRT-PCR analysis; assay type: functional, organism-based; conditions: dose 25-100 mg/kg/day, route nas, time 6.0 day
[4] = Toxicity in BALB/c mouse infected with Influenza A virus H1N1 (A/Weiss/43) assessed as liver pathological changes at 25 to 100 mg/kg/day administered intranasally for 6 days starting from 3 hrs post-viral infection by Hematoxylin-Eosin staining based analysis; assay type: organism-based; conditions: in vivo, inhaled_or_intranasal, 144 h, dose 25-100 mg/kg/day, time 6 day
Influenza A virus [5] = test: Inhibition of Influenza A virus replication infected in dog MDCK cells assessed as downregulation of virus M gene expression at 25 to 50 uM measured after 24 to 72 hrs post-infection by qRT-PCR analysis; assay type: functional, organism-based; conditions: dose 25-50 µM
[6] = Toxicity in BALB/c mouse infected with Influenza A virus H1N1 (A/Weiss/43) assessed as kidney pathological changes at 25 to 100 mg/kg/day administered intranasally for 6 days starting from 3 hrs post-viral infection by Hematoxylin-Eosin staining based analysis; assay type: organism-based; conditions: in vivo, inhaled_or_intranasal, 144 h, dose 25-100 mg/kg/day, route nas, time 6 day
Influenza A virus [7] = test: Antiviral activity against Influenza A virus H1N1 infected in human A549 cells assessed as decrease in apoptosis inducing factor gene expression by measuring decrease in FasL gene expression at 25 to 50 uM measured after 24 hrs by qRT-PCR analysis; assay type: functional, organism-based; conditions: dose 25-50 µM
Influenza A virus [8] = test: Antiviral activity against Influenza A virus H1N1 infected in dog MDCK cells assessed as decrease in apoptosis by measuring proportion of late apoptotic cells at 25 uM measured after 72 hrs by AnnexinV-FITC/PI staining based flow cytometry (reference value: 10.3%); assay type: functional; parameters: scale not given: the % may be the effect or the level left
Influenza A virus [9] = test: Antiviral activity against Influenza A virus H1N1 (A/Weiss/43)-infected in BALB/c mouse assessed as reduction in IL-8 gene expression in lungs at 25 to 100 mg/kg/day administered intranasally for 6 days starting from 3 hrs post-viral infection by qRT-PCR analysis; assay type: functional, organism-based; conditions: dose 25-100 mg/kg/day, route nas, time 6.0 day
Influenza A virus [10] = test: Antiviral activity against Influenza A virus H1N1 infected in dog MDCK cells assessed as decrease in apoptosis by measuring proportion of necrotic cells at 50 uM measured after 72 hrs by AnnexinV-FITC/PI staining based flow cytometry (reference value: 2.47%); assay type: functional; parameters: scale not given: the % may be the effect or the level left
Influenza A virus [11] = test: Antiviral activity against Influenza A virus H1N1 (A/Weiss/43)-infected in BALB/c mouse assessed as reduction in lung index at 25 mg/kg/day administered intranasally for 6 days starting from 3 hrs post-viral infection; assay type: functional; conditions: 144 h, route nas, time 6 day
Influenza A virus [12] = test: Antiviral activity against Influenza A virus H1N1 (A/Weiss/43) infected in MDCK cells assessed as reduction of viral replication treated for 2 hrs during viral adsorption and measured after 72 hrs by TCID50 method; assay type: functional, organism-based
Influenza A virus [13] = test: Antiviral activity against Influenza A virus H1N1 infected in human A549 cells assessed as decrease in apoptosis by measuring decrease in cleaved caspase-9 protein expression at 25 to 50 uM measured after 24 hrs by western blot analysis; assay type: functional, organism-based; conditions: dose 25-50 µM
Influenza A virus [14] = test: Antiviral activity against Influenza A virus H1N1 infected in human A549 cells assessed as decrease in apoptosis by measuring decrease in cleaved PARP protein expression at 25 to 50 uM measured after 24 hrs by western blot analysis; assay type: functional, organism-based; conditions: dose 25-50 µM
Influenza A virus [15] = test: Antiviral activity against Influenza A virus H1N1 (A/Weiss/43) infected in MDCK cells assessed as reduction in cell pathological changes at 25 to 50 uM by microscopic analysis; assay type: functional, organism-based; conditions: dose 25-50 µM
Influenza A virus [16] = test: Inhibition of Influenza A virus replication infected in dog MDCK cells assessed as downregulation of virus NP gene expression at 25 to 50 uM measured after 24 to 72 hrs post-infection by qRT-PCR analysis; assay type: functional, organism-based; conditions: dose 25-50 µM
Influenza A virus [17] = test: Antiviral activity against Influenza A virus H1N1 infected in dog MDCK cells assessed as decrease in apoptosis by measuring proportion of early apoptotic cells at 50 uM measured after 72 hrs by AnnexinV-FITC/PI staining based flow cytometry (reference value: 24.3%); assay type: functional; parameters: scale not given: the % may be the effect or the level left
Influenza A virus [18] = test: Antiviral activity against Influenza A virus H1N1 (A/Weiss/43) infected in MDCK cells assessed as reduction of viral replication treated for 2 hrs before viral infection and measured after 72 hrs by TCID50 method; assay type: functional, organism-based
Influenza A virus [19] = test: Antiviral activity against Influenza A virus H1N1 infected in human A549 cells assessed as decrease in incompleted autophagy by measuring increase in p62 protein expression at 25 to 50 uM measured after 24 hrs by western blot analysis; assay type: functional, organism-based; conditions: dose 25-50 µM
Influenza A virus [20] = test: Antiviral activity against Influenza A virus H1N1 (A/Weiss/43)-infected in BALB/c mouse assessed as reduction in viral NP mRNA expression in lungs at 25 to 100 mg/kg/day administered intranasally for 2 to 6 days starting from 3 hrs post-viral infection by qRT-PCR analysis; assay type: functional, organism-based; conditions: dose 25-100 mg/kg/day, route nas, time 2-6 day
Influenza A virus [21] = test: Antiviral activity against Influenza A virus H1N1 infected in human A549 cells assessed as decrease in RIG-1 pathway related gene expression by measuring decrease in IRF3 gene expression at 25 to 50 uM measured after 24 hrs by qRT-PCR analysis; assay type: functional, organism-based; conditions: dose 25-50 µM
Influenza A virus [22] = test: Inhibition of Influenza A virus Neuraminidase at 100 to 300 uM pretreated with enzyme for 5 mins followed by fluorogenic substrate addition and measured for 1 hr by fluorescence based analysis; conditions: dose 100-300 µM, time 65.0 min
Influenza A virus [23] = test: Antiviral activity against Influenza A virus H1N1 (A/Weiss/43)-infected in dog MDCK cells assessed as reduction in oxidative stress by measuring proportion of cells with excessive ROS accumulation at 50 uM treated at 2 hrs post-infection and measured after 36 hrs by DCFH-DA staining based flow cytometry (reference value: 30.6%); assay type: functional; parameters: scale not given: the % may be the effect or the level left
Influenza A virus [24] = test: Antiviral activity against Influenza A virus H1N1 (A/Weiss/43) infected in MDCK cells assessed as reduction of viral replication at 50 uM treated for 2 to 4 hrs after viral infection and measured after 72 hrs by MTT method; assay type: functional, organism-based; conditions: time 74-76 hrs
Influenza A virus [25] = test: Antiviral activity against Influenza A virus H1N1 (A/Weiss/43)-infected in BALB/c mouse assessed as reduction in lung index at 50 mg/kg/day administered intranasally for 6 days starting from 3 hrs post-viral infection; assay type: functional; conditions: 144 h, route nas, time 6 day
[26] = Selectivity index, ratio of CC50 for dog MDCK cells to EC50 for antiviral activity against Influenza A virus H1N1 (A/Weiss/43) infected in MDCK cells treated for 2 hrs before viral infection and measured after 72 hrs; assay type: toxicity, cell-based; conditions: read-out: Ratio CC50/EC50
[27] = Selectivity index, ratio of CC50 for dog MDCK cells to EC50 for antiviral activity against Influenza A virus H3N2 (A/California/2004) infected in MDCK cells; assay type: toxicity, cell-based; conditions: read-out: Ratio CC50/EC50

Compound: O=[N+]([O-])c1ccc(S(=O)(=O)N(Cc2ccccc2)c2cccc3ccccc23)cc1
- Activity (Influenza A virus [1]): 95.3%
- inhibition (Influenza A virus [2]): Active
- Activity (Influenza A virus [3]): Active
- Activity [4]: Non-Toxic
- inhibition (Influenza A virus [5]): Active
- Activity [6]: Non-Toxic
- inhibition (Influenza A virus [7]): Active
- Activity (Influenza A virus [8]): 1.21%
- Activity (Influenza A virus [9]): Active
- Activity (Influenza A virus [10]): 0.6%
- inhibition in vivo at 25 mg/kg/day (Influenza A virus [11]): 20.6%
- EC50 (Influenza A virus [12]): 6.09 µM
- inhibition (Influenza A virus [13]): Active
- inhibition (Influenza A virus [14]): Active
- Activity (Influenza A virus [15]): Active
- inhibition (Influenza A virus [16]): Active
- Activity (Influenza A virus [17]): 2.93%
- EC50 (Influenza A virus [18]): 7.61 µM
- inhibition (Influenza A virus [19]): Active
- Activity (Influenza A virus [20]): Active
- inhibition (Influenza A virus [21]): Active
- inhibition (Influenza A virus [22]): inactive
- Activity (Influenza A virus [23]): 4.66%
- Activity (Influenza A virus [24]): Active
- inhibition in vivo at 50 mg/kg/day (Influenza A virus [25]): 28.8%
- selectivity ratio at 72 h [26]: > 105
- selectivity ratio [27]: > 121
